Test results published in ChEMBL document CHEMBL4811278, “Discovery of novel modulators for the PPARα (peroxisome proliferator activated receptor α): Potential therapies for nonalcoholic fatty liver disease” (Bioorg Med Chem, 2021).
Calls of active or inactive are those of the source. The calls are words filed in the database; no cut-off is given here.

Key:
[1] = target: T1, Peroxisome proliferator-activated receptor alpha (Mus musculus) (UniProt P23204); experiment: In vivo agonist activity at PPARalpha in high fat diet-induced nonalcoholic steatohepatitis C57BL/6J mouse model assessed as increase in mCPT1A gene expression in liver at 3 mg/kg, po administered once daily for 7 days and measured at >3 days by quantitative real time PCR analysis; type: functional, organism-based; conditions: time day >3
T1 sequence (whole entry): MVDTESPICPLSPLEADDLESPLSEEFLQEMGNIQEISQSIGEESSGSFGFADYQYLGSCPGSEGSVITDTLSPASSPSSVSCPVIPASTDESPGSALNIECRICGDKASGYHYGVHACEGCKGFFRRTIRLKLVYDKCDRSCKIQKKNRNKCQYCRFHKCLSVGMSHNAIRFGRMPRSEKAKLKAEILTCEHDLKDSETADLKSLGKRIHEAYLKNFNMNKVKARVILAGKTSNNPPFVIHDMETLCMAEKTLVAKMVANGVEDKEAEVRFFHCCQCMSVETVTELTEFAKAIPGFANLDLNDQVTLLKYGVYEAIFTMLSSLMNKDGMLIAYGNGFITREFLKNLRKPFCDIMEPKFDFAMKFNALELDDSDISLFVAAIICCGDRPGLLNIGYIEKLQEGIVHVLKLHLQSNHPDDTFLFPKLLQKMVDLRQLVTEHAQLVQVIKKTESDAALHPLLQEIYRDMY

[2] = target: T1, Peroxisome proliferator-activated receptor alpha (Mus musculus); experiment: In vivo agonist activity at PPARalpha in high fat diet-induced nonalcoholic steatohepatitis C57BL/6J mouse model assessed as increase in ACOX1 mRNA expression in liver administered at 3 mg/kg, po and measured after 24 hrs by quantitative real time PCR analysis; type: functional, organism-based
[3] = target: T1, Peroxisome proliferator-activated receptor alpha (Mus musculus); experiment: In vivo agonist activity at PPARalpha in high fat diet-induced nonalcoholic steatohepatitis C57BL/6J mouse model assessed as trans-repression of ApoC3 mRNA expression in liver administered at 3 mg/kg, po and measured after 24 hrs by quantitative real time PCR analysis; type: functional, organism-based
Mus musculus [4] = experiment: Hypolipidemic activity in high fat diet-induced nonalcoholic steatohepatitis C57BL/6J mouse model assessed as reduction in fat droplets in liver at 3 mg/kg, po administered once daily for 1 week by Oil Red O staining based assay; type: functional, organism-based; conditions: time 1.0 weeks
[5] = target: T1, Peroxisome proliferator-activated receptor alpha (Mus musculus); experiment: In vivo agonist activity at PPARalpha in high fat diet-induced nonalcoholic steatohepatitis C57BL/6J mouse model assessed as increase in Cyp4a3 mRNA expression in liver administered at 3 mg/kg, po administered once daily for 7 days by quantitative real time PCR analysis; type: functional, organism-based; conditions: time 7.0 day
Mus musculus [6] = experiment: Hypolipidemic activity in high fat diet-induced nonalcoholic steatohepatitis C57BL/6J mouse model assessed as reduction in plasma triglyceride level at 3 mg/kg, po administered once daily via gavage for 7 days; type: functional; conditions: 168 h, time 7 day
[7] = Toxicity in C57BL/6J mouse assessed as reduction in body weight measured after 72 hrs; conditions: in vivo
[8] = target: T2, Peroxisome proliferator-activated receptor delta (Homo sapiens, UniProt Q03181); experiment: Agonist activity at Gal4-fused human PPARdelta expressed in monkey CV1 cells assessed as receptor transactivation incubated for 45 hrs by luciferase reporter gene assay; type: cell-based, CV-1
T2 sequence (Q03181 whole entry): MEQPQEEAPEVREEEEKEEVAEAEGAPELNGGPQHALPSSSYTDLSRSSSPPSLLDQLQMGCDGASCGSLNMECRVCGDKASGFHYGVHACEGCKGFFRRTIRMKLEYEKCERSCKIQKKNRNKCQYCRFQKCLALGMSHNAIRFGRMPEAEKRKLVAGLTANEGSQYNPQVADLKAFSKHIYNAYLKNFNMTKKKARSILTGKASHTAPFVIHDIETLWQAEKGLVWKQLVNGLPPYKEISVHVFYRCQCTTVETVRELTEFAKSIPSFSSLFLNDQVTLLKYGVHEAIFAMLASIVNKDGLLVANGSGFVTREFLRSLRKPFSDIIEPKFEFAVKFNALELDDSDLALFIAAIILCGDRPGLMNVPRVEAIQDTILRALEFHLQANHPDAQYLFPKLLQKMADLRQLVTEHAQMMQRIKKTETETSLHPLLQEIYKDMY

[9] = Toxicity in C57BL/6J mouse assessed as reduction in body weight measured after 24 hrs; conditions: in vivo
[10] = Toxicity in high fat diet-induced nonalcoholic steatohepatitis C57BL/6J mouse model assessed as increase in plasma glucose level at 3 mg/kg, po administered once daily for 7 days and measured after 4 days; type: organism-based; conditions: in vivo, 96 h, time 4 day
Mus musculus [11] = experiment: Hypolipidemic activity in high fat diet-induced nonalcoholic steatohepatitis PPARalpha knockout C57BL/6J mouse model assessed as reduction in plasma triglyceride levels at 3 mg/kg, po measured after 72 hrs; type: functional, organism-based
[12] = target: T1, Peroxisome proliferator-activated receptor alpha (Mus musculus); experiment: In vivo agonist activity at PPARalpha in high fat diet-induced nonalcoholic steatohepatitis C57BL/6J mouse model assessed as increase in mACADM gene expression in liver at 3 mg/kg, po administered once daily for 7 days by quantitative real time PCR analysis; type: functional, organism-based; conditions: time 7.0 day
[13] = target: T1, Peroxisome proliferator-activated receptor alpha (Mus musculus); experiment: In vivo agonist activity at PPARalpha in high fat diet-induced nonalcoholic steatohepatitis C57BL/6J mouse model assessed as increase in Cyp4a3 mRNA expression in liver administered at 3 mg/kg, po and measured after 24 hrs by quantitative real time PCR analysis; type: functional, organism-based
Mus musculus [14] = experiment: Hypolipidemic activity in high fat diet-induced nonalcoholic steatohepatitis C57BL/6J mouse model assessed as reduction in plasma free fatty acid level at 3 mg/kg, po administered once daily via gavage for 7 days; type: functional; conditions: 168 h, time 7 day
[15] = target: T1, Peroxisome proliferator-activated receptor alpha (Mus musculus); experiment: In vivo agonist activity at PPARalpha in high fat diet-induced nonalcoholic steatohepatitis C57BL/6J mouse model assessed as increase in LPL mRNA expression in liver administered at 3 mg/kg, po administered once daily for 7 days by quantitative real time PCR analysis; type: functional, organism-based; conditions: time 7.0 day
[16] = target: T3, Peroxisome proliferator-activated receptor alpha (Homo sapiens, UniProt Q07869); experiment: Agonist activity at Gal4-fused human PPARalpha co-expressed with RXRalpha in monkey CV1 cells assessed as PPRE transcriptional activation incubated for 45 hrs by luciferase reporter gene assay; type: cell-based, CV-1
T3 sequence (Q07869 whole entry): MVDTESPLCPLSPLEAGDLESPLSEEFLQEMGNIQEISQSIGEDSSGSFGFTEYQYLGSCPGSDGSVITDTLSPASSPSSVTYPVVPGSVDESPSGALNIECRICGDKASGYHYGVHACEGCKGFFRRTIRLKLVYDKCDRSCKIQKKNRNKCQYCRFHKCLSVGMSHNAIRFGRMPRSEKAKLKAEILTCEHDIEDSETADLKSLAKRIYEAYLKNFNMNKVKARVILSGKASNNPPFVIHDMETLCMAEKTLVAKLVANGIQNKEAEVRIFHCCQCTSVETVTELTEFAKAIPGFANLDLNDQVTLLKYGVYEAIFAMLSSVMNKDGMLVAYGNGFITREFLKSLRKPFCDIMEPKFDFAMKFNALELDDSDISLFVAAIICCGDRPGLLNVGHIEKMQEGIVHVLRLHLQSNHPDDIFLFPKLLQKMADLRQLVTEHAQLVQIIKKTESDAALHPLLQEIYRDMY

Mus musculus [17] = experiment: Hypolipidemic activity in high fat diet-induced nonalcoholic steatohepatitis C57BL/6J mouse model assessed as reduction in hepatic […] content at 3 mg/kg, po administered once daily via gavage for 7 days; type: functional, organism-based; conditions: time 7.0 day

- Activity [1]: Active
- Activity [2]: Active
- Activity [3]: Active
- Activity [5]: Active
- EC50 [8]: > 10000 nM
- Activity [12]: Active
- Activity [13]: Active
- Activity [15]: Active
- EC50 [16]: 0.87 nM
Compound: COc1ccc(Cn2c(CCCc3ccc(OC(C)(C)C(=O)O)cc3)nn(Cc3ccc(C)cc3)c2=O)cc1
- Activity (Mus musculus [4]): Active
- inhibition in vivo at 3 mg/kg (Mus musculus [6]): ≥ 50%
- Activity [7]: Non-Toxic
- Activity [9]: Non-Toxic
- Activity [10]: Non-Toxic
- Activity (Mus musculus [11]): inactive
- inhibition in vivo at 3 mg/kg (Mus musculus [14]): ≥ 60%
- Activity (Mus musculus [17]): Active
